Consider four molecules from publication PMC6757289, “Design and Characterization of SGK3-PROTAC1, an Isoform Specific SGK3 Kinase PROTAC Degrader” (ACS Chemical Biology, 2019).

The remaining activity is the signal under treatment as a percentage of the control signal.

Where two headings read alike, the source gives them in different places.

Common to all, as to experiment: kinase profiling panel
Common to all, as to assay type: biochemical
Common to all, as to conditions: read-out: % Activity Remaining

One experiment concerns the target JNK2 (Homo sapiens, UniProt P45984). An excerpt: (§1) Protein kinase profiling against a Dundee panel of 140 protein kinases was undertaken at the International Centre for Protein Kinase Profiling. The result for each kinase was presented as a mean kinase activity of the reaction taken in triplicate relative to a control sample treated with DMSO. Assay conditions and abbreviations are available at http://www.kinase-screen.mrc.ac.uk.

The next experiment addresses MELK (Homo sapiens, UniProt Q14680).
Excerpt: as §1

In a further experiment the target is T1, EPH-B1 (Homo sapiens, UniProt P54762).
T1 sequence (P54762 18-984): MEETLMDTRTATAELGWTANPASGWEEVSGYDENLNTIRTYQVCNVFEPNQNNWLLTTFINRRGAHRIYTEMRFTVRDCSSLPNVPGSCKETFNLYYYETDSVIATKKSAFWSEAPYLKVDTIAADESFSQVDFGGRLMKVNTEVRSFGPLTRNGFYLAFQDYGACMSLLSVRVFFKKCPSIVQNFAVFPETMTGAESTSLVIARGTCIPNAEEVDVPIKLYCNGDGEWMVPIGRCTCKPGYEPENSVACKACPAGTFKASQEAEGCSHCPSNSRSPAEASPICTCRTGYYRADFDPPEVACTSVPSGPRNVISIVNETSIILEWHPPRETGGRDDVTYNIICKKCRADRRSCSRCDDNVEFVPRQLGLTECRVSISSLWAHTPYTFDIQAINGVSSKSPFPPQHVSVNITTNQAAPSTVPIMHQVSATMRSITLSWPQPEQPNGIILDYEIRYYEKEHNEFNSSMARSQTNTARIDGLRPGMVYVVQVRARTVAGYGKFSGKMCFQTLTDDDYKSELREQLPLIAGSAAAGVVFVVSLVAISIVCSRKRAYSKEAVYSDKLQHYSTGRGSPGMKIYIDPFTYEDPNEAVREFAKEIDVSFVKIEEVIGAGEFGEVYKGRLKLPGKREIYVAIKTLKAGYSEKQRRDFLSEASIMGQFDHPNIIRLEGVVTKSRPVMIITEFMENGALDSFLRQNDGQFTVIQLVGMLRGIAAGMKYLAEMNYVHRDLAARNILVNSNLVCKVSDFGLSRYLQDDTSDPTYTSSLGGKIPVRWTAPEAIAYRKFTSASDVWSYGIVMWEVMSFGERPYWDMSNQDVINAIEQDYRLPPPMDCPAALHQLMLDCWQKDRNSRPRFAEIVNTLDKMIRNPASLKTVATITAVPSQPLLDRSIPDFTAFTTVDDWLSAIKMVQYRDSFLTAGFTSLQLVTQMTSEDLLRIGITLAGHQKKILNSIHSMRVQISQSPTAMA
Excerpt: as §1

Another experiment has as its target MST3 (Homo sapiens, UniProt Q9Y6E0).
Excerpt: as §1

The next experiment deals with T2, TGFBR1 (Homo sapiens, UniProt P36897).
T2 sequence (P36897 34-503): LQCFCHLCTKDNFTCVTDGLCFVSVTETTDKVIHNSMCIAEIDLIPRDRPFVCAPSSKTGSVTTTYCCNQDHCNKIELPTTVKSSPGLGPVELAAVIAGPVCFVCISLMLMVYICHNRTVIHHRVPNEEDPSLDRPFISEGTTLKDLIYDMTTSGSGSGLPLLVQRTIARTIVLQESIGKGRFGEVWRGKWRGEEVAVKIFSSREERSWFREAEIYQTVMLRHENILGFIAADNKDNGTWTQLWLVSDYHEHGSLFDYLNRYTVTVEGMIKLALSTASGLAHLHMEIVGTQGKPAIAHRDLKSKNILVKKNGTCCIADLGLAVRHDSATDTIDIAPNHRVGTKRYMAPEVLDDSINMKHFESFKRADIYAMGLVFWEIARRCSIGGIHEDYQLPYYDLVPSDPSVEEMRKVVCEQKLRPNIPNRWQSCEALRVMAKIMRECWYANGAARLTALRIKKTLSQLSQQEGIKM
Excerpt: as §1

In another experiment the target is ROCK 2 (Homo sapiens, UniProt O75116).
Chain of ROCK 2 (O75116 whole entry): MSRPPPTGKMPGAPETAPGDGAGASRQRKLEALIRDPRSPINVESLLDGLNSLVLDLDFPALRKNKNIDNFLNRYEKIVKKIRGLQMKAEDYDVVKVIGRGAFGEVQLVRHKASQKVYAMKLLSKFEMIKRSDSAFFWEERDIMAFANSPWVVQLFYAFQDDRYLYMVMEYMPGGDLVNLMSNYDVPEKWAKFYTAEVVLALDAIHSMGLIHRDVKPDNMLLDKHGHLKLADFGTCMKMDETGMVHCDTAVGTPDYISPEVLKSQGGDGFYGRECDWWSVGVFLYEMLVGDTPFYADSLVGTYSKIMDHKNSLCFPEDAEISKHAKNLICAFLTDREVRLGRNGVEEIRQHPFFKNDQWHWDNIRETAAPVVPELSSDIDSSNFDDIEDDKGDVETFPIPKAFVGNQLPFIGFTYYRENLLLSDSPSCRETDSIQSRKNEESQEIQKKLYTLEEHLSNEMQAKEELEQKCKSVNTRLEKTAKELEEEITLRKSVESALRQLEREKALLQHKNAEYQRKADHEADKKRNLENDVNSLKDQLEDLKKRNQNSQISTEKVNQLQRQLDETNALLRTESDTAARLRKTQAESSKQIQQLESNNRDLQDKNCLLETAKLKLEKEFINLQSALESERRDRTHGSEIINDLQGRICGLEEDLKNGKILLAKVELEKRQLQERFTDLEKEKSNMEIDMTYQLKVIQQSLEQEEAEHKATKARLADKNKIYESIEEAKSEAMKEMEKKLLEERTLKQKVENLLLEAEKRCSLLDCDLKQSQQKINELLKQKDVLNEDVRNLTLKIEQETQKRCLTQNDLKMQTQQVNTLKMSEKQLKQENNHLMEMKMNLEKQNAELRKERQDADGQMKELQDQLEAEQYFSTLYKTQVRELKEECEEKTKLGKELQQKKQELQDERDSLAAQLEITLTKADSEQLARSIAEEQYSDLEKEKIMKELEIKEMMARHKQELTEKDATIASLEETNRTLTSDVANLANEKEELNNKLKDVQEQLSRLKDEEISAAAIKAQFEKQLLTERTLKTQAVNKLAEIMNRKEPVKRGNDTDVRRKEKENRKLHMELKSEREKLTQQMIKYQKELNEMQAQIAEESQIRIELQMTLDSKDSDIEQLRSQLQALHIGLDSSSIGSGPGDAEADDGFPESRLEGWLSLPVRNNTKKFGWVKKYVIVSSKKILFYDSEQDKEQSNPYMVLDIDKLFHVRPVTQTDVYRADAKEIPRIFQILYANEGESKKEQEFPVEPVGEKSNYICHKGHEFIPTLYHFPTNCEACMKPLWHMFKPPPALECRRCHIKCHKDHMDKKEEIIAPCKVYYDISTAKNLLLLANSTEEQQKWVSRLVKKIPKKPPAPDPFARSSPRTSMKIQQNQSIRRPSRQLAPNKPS
Excerpt: as §1

The next experiment addresses TTBK1 (Homo sapiens, UniProt Q5TCY1).
Excerpt: as §1

Another experiment addresses T3, EPH-B2 (Homo sapiens, UniProt P29323).
T3 sequence (P29323 19-1055): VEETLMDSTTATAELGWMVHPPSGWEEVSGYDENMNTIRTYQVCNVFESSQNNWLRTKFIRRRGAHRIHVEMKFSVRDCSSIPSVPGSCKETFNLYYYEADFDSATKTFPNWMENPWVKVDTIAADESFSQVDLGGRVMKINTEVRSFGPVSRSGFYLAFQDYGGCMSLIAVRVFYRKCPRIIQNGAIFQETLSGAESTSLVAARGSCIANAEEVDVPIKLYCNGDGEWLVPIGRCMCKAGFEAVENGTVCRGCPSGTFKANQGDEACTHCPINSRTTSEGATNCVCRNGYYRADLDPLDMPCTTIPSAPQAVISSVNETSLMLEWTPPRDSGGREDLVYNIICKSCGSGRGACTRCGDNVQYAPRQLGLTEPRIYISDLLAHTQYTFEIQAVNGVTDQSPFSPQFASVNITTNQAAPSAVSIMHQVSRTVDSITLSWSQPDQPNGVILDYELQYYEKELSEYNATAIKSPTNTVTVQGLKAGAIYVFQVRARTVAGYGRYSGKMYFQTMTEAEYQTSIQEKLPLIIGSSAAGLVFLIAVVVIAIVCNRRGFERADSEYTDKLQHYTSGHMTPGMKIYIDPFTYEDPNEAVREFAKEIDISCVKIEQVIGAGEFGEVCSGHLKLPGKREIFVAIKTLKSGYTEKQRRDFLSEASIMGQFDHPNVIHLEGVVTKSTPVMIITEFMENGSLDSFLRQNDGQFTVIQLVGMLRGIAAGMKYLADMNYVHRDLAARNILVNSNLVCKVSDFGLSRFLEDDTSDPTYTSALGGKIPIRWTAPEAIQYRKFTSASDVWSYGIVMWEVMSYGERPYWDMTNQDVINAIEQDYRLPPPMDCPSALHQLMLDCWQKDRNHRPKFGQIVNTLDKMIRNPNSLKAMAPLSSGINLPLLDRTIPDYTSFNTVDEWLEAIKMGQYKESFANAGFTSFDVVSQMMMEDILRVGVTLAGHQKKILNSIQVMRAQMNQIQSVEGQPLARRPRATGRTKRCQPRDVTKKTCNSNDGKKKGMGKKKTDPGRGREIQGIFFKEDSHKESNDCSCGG
Excerpt: as §1

Another experiment deals with MAPKAP-K2 (Homo sapiens, UniProt P49137).
Chain of MAPKAP-K2 (P49137 whole entry): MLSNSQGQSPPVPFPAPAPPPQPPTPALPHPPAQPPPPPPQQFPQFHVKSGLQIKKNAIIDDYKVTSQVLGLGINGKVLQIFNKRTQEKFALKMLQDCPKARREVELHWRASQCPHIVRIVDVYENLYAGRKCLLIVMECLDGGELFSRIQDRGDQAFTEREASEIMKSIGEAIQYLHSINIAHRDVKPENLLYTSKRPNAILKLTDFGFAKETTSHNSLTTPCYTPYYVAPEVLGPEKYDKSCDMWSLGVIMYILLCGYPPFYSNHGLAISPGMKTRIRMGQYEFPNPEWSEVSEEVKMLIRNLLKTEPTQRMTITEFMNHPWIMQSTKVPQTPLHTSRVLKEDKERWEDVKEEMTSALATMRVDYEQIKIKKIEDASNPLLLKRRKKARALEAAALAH
Excerpt: as §1

Chain of JNK2 (P45984 whole entry): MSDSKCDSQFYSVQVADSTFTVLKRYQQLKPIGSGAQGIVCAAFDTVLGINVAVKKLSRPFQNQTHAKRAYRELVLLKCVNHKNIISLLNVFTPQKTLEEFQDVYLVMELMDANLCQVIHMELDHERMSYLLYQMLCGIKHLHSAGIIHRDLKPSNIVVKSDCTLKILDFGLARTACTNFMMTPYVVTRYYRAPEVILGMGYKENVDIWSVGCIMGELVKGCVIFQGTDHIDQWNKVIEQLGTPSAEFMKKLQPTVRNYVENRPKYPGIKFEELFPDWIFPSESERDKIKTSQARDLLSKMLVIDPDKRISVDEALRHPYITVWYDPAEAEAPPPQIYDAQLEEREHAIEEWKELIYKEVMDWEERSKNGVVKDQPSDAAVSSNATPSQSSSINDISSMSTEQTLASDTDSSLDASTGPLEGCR
Chain of MST3 (Q9Y6E0 whole entry): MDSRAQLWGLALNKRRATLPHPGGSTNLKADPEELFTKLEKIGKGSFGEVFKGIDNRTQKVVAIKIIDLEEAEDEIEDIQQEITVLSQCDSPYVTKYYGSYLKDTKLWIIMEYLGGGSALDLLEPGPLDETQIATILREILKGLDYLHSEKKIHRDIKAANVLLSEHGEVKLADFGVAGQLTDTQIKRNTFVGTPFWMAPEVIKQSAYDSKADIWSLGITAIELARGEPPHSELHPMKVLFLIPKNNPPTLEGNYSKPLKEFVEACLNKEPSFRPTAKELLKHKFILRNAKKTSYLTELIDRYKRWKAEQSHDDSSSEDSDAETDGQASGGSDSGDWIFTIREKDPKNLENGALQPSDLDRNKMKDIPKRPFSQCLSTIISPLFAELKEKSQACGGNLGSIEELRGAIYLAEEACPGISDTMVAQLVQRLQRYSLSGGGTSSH
Chain of MELK (Q14680 whole entry): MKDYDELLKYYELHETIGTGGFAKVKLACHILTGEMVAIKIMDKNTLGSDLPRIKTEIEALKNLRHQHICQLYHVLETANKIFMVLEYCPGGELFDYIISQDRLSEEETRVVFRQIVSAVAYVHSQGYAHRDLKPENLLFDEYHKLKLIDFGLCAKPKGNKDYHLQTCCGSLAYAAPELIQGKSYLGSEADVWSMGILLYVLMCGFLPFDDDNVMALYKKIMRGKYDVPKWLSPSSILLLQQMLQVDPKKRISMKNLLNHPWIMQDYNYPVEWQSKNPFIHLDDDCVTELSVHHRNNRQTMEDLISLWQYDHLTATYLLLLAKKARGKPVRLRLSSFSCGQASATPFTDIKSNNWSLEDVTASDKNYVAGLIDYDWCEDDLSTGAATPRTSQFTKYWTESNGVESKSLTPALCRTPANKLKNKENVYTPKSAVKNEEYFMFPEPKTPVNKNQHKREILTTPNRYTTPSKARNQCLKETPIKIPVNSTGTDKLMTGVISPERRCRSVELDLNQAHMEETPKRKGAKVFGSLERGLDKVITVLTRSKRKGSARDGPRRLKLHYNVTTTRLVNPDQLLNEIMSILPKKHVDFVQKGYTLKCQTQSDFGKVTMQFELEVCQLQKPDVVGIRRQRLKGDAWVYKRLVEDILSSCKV
Chain of TTBK1 (Q5TCY1 whole entry): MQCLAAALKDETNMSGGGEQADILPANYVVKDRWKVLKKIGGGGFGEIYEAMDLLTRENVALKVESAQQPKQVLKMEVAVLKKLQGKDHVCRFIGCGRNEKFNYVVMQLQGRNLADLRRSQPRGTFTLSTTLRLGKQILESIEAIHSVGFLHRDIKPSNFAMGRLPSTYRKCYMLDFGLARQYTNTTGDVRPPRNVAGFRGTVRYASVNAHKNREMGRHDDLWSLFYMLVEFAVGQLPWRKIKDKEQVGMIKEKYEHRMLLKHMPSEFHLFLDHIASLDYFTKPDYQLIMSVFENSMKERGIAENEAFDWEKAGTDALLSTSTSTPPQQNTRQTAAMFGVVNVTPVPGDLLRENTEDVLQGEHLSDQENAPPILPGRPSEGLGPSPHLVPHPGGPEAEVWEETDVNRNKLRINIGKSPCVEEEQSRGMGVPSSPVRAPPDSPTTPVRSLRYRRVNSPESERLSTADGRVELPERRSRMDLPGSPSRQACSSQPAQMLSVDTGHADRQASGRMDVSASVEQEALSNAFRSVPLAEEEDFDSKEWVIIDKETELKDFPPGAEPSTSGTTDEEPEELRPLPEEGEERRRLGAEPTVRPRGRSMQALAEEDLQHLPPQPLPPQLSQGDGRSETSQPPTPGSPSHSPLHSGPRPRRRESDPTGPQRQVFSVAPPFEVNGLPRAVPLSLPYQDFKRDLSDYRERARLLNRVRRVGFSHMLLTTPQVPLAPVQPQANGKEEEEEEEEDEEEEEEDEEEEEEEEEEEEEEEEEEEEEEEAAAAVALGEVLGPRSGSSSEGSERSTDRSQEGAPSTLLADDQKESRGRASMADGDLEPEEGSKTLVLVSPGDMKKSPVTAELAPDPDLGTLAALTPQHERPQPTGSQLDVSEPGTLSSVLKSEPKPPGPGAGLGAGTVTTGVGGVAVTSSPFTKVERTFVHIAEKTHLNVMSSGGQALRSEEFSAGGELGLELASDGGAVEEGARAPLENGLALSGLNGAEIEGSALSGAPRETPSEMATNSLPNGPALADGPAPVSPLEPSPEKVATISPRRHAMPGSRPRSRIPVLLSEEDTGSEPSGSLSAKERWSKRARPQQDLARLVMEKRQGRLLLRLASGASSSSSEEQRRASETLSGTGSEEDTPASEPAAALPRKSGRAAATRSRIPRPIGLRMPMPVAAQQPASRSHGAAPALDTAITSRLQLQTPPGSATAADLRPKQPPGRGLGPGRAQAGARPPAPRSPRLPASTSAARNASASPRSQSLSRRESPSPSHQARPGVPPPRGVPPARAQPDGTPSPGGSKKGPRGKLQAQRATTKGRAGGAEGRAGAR

Consider `COc1ccc(Cl)c(S(=O)(=O)Nc2ccc(-c3nc(OC[C@H]4CNCCO4)c4c(C)n[nH]c4n3)cc2)c1` [290-R, reference compound], for which the remaining activity at 1 µM turned out to be 105% on JNK2; 11% on MELK; 117% on EPH-B1; 57% at MST3; 120% at TGFBR1; 105% at ROCK 2. In addition, the values for the remaining activity at 1 µM on TTBK1, on EPH-B2 and at MAPKAP-K2 were 109%, 120% and 87%, respectively.
`Cc1ccc(F)c(S(=O)(=O)Nc2ccc(-c3nc(OC[C@H]4CNCCO4)c4cn[nH]c4n3)cc2)c1` [308-R, reference compound]: the remaining activity at 1 µM on JNK2 was 113%; at MELK, 19%; on EPH-B1, 96%; on MST3, 79%; on TGFBR1 it was 120%; at ROCK 2 it was 74%. Moreover, the values for the remaining activity at 1 µM on TTBK1 (1 µM), on EPH-B2 and on MAPKAP-K2 were 91%, 56% and 83%, respectively.
Take `Cc1ccc(F)c(S(=O)(=O)Nc2ccc(-c3nc(OC[C@H]4CN(CCCCCCOCCOCCOCC(=O)N[C@H](C(=O)N5C[C@H](O)C[C@H]5C(=O)NCc5ccc(-c6scnc6C)cc5)C(C)(C)C)CCO4)c4cn[nH]c4n3)cc2)c1` [SGK3-PROTAC1]: the remaining activity at 1 µM came out at 117% at JNK2 (1 µM); 91% at MELK (1 µM); 100% at EPH-B1 (1 µM); 102% on MST3 (1 µM); 124% on TGFBR1 (1 µM); 113% at ROCK 2 (1 µM). Also, the remaining activity at 1 µM at TTBK1 (1 µM) amounted to 105%; at EPH-B2 (1 µM), 94%; at MAPKAP-K2 (1 µM), 86%.
As for `Cc1ccc(F)c(S(=O)(=O)Nc2ccc(-c3nc(OC[C@H]4CN(CCCCCCOCCOCCOCC(=O)N[C@H](C(=O)N5C[C@@H](O)C[C@H]5C(=O)NCc5ccc(-c6scnc6C)cc5)C(C)(C)C)CCO4)c4cn[nH]c4n3)cc2)c1` [cisSGK3-PROTAC1], the remaining activity at 1 µM was 109% at JNK2 (1 µM); 100% on MELK (1 µM); 108% at EPH-B1 (1 µM); 113% on MST3 (1 µM); 114% on TGFBR1 (1 µM); 119% at ROCK 2 (1 µM). Also, the results for the remaining activity at 1 µM at TTBK1 (1 µM), on EPH-B2 (1 µM) and on MAPKAP-K2 (1 µM) were 113%, 97% and 92%, respectively.
